Assay results taken from patent US9924721B2 (priority 2013, dated 2018).
Marks after values point to notes of the source that are not given here.

How the values were obtained:
Phytophthora infestans = test: microbe, parasite or virus in culture; format: cell-based; settings: 8 days incubation
[1] = pH 2.7
Pythium ultimum = Pythium ultimum in vitro cell test; format: cell-based; settings: 4 days incubation
Description: Pythium ultimum In Vitro Cell Test
• Solvent: DMSO • Culture medium: 14.6 g anhydrous D-glucose (VWR), 7.1 g Mycological Peptone (Oxoid), 1.4 g granulated Yeast Extract (Merck), QSP liter • Inoculum: mycelial suspension
Fungicides were solubilized in DMSO and the solution used to prepare the required range of concentrations. The final concentration of DMSO used in the assay was ≤1%.
Inoculum was prepared from a pre-culture of P. ultimum grown in liquid medium by homogenization using a blender. The concentration of ground mycelium in the inoculum was estimated and adjusted to the desired optical density (OD).
Fungicides were evaluated for their ability to inhibit mycelium growth in liquid culture assay. The compounds were added in the desired concentrations to culture medium containing the mycelial suspension. After 4 days of incubation, the fungicidal efficacy of compounds was determined by spectrometric measurement of mycelium growth. Inhibition of fungal growth was determined by comparing the absorbance values in wells containing the fungicides with the absorbance in control wells without fungicides.

[2] = 0.25 μg/mL of active ingredient

Row | SMILES | Eff. % (inhibition of fungal growth) (Phytophthora infestans; [2]) [%] | Log P [1] | Eff. % (inhibition of fungal growth) (Pythium ultimum; of active ingredient) [%] | Eff. % (inhibition of fungal growth) (Phytophthora infestans; 20 μg/mL of active ingredient) [%] | Eff. % (inhibition of fungal growth) (Pythium ultimum; 20 μg/mL of active ingredient) [%]
1 | C#CCOc1cccc(Cl)c1C1CC(c2csc(C3CCN(C(=O)C(C(=O)OC(C)(C)C)n4nc(C(F)F)cc4C(F)F)CC3)n2)=NO1 (stereo not drawn) [Example I-63] | 100 | 4.31^[a] | 90 |  | 
2 | CCOC(=O)C(Br)C(=O)N1CCC(c2nc(C3=NOC(c4c(F)cccc4OS(C)(=O)=O)C3)cs2)CC1 (stereo not drawn) [Example I-27] |  | 2.72^[a] |  | 100 | 100
3 | CCOC(=O)CC(=O)N1CCC(c2nc(C3=NOC(c4ccccc4OS(C)(=O)=O)C3)cs2)CC1 (stereo not drawn) [Example I-50] |  | 2.30^[a] |  | 98 | 94
4 | C#CCOc1ccccc1C1CC(c2csc(C3CCN(C(=O)C(C(=O)OC(C)(C)C)n4nc(C(F)F)cc4C(F)F)CC3)n2)=NO1 (stereo not drawn) [Example I-65] | 100 | 4.16^[a] | 91 |  | 
5 | C#CCOc1cccc(F)c1C1CC(c2csc(C3CCN(C(=O)C(C(=O)OC(C)C)n4nc(C(F)F)cc4C(F)F)CC3)n2)=NO1 (stereo not drawn) [Example I-07] | 100 | 3.81^[a] | 97 |  | 
6 | C#CCOc1cccc(F)c1C1CC(c2csc(C3CCN(C(=O)C(Br)C(=O)OCC)CC3)n2)=NO1 (stereo not drawn) [Example I-26] |  | 2.98^[a] |  | 100 | 100
7 | CCOC(=O)C(C(=O)N1CCC(c2nc(C3=NOC(c4ccccc4OS(C)(=O)=O)C3)cs2)CC1)n1nc(C(F)F)cc1C(F)F (stereo not drawn) [Example I-11] |  | 3.28^[a] |  | 100 | 97
8 | C#CCOc1cccc(F)c1C1CC(c2csc(C3CCN(C(=O)CC(=O)OC(CC)CCCCC)CC3)n2)=NO1 (stereo not drawn) [Example I-40] |  | 4.42^[a] |  | 100 | 93
9 | CC(C)OC(=O)CC(=O)N1CCC(c2nc(C3=NOC(c4ccccc4C=O)C3)cs2)CC1 (stereo not drawn) [Example I-56] |  | 2.57^[a] |  | 100 | 84
10 | CCOC(=O)CC(=O)N1CCC(c2nc(C3=NOC(c4c(Cl)cccc4OS(C)(=O)=O)C3)cs2)CC1 (stereo not drawn) [Example I-49] |  | 2.53^[a] |  | 100 | 88
11 | CCOC(=O)C(Br)C(=O)N1CCC(c2nc(C3=NOC(c4ccccc4OS(C)(=O)=O)C3)cs2)CC1 (stereo not drawn) [Example I-33] |  | 2.72^[a] |  | 100 | 99
12 | CCCCCC(CC)OC(=O)CC(=O)N1CCC(c2nc(C3=NOC(c4ccccc4C=O)C3)cs2)CC1 (stereo not drawn) [Example I-55] |  | 4.27^[a] |  | 100 | 70
13 | C#CCOc1ccccc1C1CC(c2csc(C3CCN(C(=O)CC(=O)OC(C)C)CC3)n2)=NO1 (stereo not drawn) [Example I-52] |  | 2.94^[a] |  | 87 | 86
14 | CC(C)OC(=O)CC(=O)N1CCC(c2nc(C3=NOC(c4c(F)cccc4OS(C)(=O)=O)C3)cs2)CC1 (stereo not drawn) [Example I-47] |  | 2.53^[a] |  | 100 | 93
15 | COCCOC(=O)CC(=O)N1CCC(c2nc(C3=NOC(c4ccccc4OS(C)(=O)=O)C3)cs2)CC1 (stereo not drawn) [Example I-46] |  | 2.11^[a] |  | 100 | 97
16 | CC(C)OC(=O)C(C(=O)N1CCC(c2nc(C3=NOC(c4c(F)cccc4OS(C)(=O)=O)C3)cs2)CC1)n1nc(C(F)F)cc1C(F)F (stereo not drawn) [Example I-17] | 100 | 3.49^[a] | 99 |  | 
17 | C#CCOc1cccc(F)c1C1CC(c2csc(C3CCN(C(=O)C(C(=O)OCC)n4nc(C(F)F)cc4C(F)F)CC3)n2)=NO1 (stereo not drawn) [Example I-04] | 100 | 3.57^[a] |  |  | 92
